In patent US20230063321A1, “Methods for Treating Inflammatory Bowel Diseases with alpha4beta7 Integrin Antagonists” (Protagonist Therapeutics, Inc., priority 2020, published 2023):
In brackets after ≈: the same amount, converted by molar mass. Read-outs that look alike come from different tables or passages of the source. Numbered stars: 1 amine (or outer) side, 2 acyl side, 3 side chain; on linkers, the order of the positions; unused ones are H or OH. Bridge positions count the residues as written; N and C are the ends. Square brackets hold non-standard residues; d marks the D form. Peptide text beside a SMILES is read from it. I, II: the chains in the order shown. ξ: configuration not given here. Phe(4-tBu) = CC(C)(C)c1ccc(C[C@H](N)C(=O)O)cc1; Diglycolyl = O=C(COCC(=O)[*:2])[*:1]; NMeR = CN[C@@H](CCCNC(=N)N)C(=O)O; β3hE = N[C@@H](CCC(=O)O)CC(=O)O; Thr(3ξ) = CC(O)[C@H](N)C(=O)O; X1 = O=C(c1ccccc1C[*:2])[*:1]; Pen = CC(C)(S)[C@H](N)C(=O)O

Columns and labels:
α4β7 receptor occupancy = biological target: T1, α4β7 receptor occupancy (Homo sapiens, UniProt P13612+P26010); test: Plasma concentration-receptor occupancy relationship, sigmoid Emax (Hill) model; conditions: in vivo
T1 construct: the amount of α4β7 expression on the cell surface of circulating lymphocytes; endogenous in cells; host or cells: heparinized whole blood of healthy volunteers
T1 sequence (P13612 34-1032): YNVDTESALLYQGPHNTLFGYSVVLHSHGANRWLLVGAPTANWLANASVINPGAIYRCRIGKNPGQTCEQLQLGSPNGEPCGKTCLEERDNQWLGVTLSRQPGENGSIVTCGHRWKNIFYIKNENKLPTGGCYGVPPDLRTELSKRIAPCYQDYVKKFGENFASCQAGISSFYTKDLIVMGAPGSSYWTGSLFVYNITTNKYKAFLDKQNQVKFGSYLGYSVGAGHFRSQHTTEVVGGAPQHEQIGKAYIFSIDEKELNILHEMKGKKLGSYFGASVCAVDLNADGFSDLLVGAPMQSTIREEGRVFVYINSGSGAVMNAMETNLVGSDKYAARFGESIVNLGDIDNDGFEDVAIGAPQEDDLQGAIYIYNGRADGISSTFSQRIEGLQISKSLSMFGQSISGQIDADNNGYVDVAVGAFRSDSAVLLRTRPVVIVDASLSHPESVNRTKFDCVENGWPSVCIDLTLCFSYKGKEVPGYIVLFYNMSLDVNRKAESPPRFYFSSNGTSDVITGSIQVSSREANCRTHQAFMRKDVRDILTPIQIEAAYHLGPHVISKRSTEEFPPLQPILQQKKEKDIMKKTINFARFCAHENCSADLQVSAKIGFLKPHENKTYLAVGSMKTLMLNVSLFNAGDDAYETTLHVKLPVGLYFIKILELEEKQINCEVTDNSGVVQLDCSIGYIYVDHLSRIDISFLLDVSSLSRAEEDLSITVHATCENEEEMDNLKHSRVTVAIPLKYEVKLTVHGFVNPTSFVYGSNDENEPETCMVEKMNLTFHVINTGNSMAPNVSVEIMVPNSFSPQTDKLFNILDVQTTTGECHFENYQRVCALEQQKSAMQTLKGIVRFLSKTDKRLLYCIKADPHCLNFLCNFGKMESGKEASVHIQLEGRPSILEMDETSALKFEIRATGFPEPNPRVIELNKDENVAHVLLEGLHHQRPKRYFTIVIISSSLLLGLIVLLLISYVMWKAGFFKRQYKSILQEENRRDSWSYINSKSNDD
T1 sequence (P26010 20-798): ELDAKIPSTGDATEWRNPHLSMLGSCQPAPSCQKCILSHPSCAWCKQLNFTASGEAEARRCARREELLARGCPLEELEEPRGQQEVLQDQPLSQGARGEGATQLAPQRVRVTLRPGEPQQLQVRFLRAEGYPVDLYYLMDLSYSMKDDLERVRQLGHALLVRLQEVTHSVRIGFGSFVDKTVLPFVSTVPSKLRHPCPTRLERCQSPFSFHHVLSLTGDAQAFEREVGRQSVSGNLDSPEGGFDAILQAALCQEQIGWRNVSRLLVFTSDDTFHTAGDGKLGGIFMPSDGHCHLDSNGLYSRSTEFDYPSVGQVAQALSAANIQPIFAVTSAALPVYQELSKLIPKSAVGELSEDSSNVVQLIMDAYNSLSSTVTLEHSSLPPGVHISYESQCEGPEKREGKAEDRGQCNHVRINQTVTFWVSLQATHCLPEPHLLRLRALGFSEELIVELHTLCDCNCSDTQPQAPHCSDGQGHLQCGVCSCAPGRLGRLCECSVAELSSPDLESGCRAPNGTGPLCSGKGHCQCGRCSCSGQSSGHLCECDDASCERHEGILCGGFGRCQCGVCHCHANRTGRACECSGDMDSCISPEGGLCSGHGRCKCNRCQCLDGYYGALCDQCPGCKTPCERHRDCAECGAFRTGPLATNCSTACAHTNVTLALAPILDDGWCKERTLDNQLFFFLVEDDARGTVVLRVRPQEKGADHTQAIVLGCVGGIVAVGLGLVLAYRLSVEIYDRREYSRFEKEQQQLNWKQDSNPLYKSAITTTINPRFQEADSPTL

[1] = 28-day toxicology studies (NOEL); assay type: in vivo, rats and cynomolgus monkeys; conditions: standard allometric scaling and 10-fold safety margin
Method: The starting dose in the first in human single and multiple dose study was based on consideration of the no observed effect level (NOEL) from 28-day toxicology studies in rats and cynomolgus monkeys, and the receptor occupancy noted in cynomolgus monkeys. The NOEL determined in rats and monkeys translated to a human equivalent dose of approximately 145 mg using standard allometric scaling and a 10-fold safety margin. A starting dose of 100 mg was selected with initial stepwise escalations of approximately 3-fold.

primary CD4+ T-cells = test: Flow cytometry phenotype of proliferated CD4+ T-cells (Th subsets, surface β7); assay type: cell-based, human
Method: PBMCs were purified from healthy human donors and enrichment of CD4+ T cells was performed. […] Phenotype, distribution of T-helper (Th) subsets and % RO analyses were conducted by flow cytometry of freshly stained live samples.

[2] = Oral bioavailability in cynomolgus monkeys; conditions: cynomolgus monkey, in vivo
[3] = Oral bioavailability in mice; conditions: mouse, in vivo
[4] = Plasma and tissue exposure after single PO administration; assay type: in vivo, C57BL/6 female mice; conditions: single PO 30 mg/kg
Method: Twelve treatment-naïve C57BL/6 female mice were assigned to the study. […] At 1, 3, and 6 hours (h) post-dose, 4 mice/time point were subjected to terminal bleeds and euthanized; Peyer's patches (PPs), mesenteric lymph nodes (MLNs), small intestine, and colon were collected from each animal. The blood was processed to plasma; plasma and the tissue samples were submitted for pharmacokinetic (PK) analysis of Compound A levels using a qualified liquid chromatography tandem mass spectrometry (LC-MS/MS) method.
Processed plasma and tissue samples were analyzed on an AB/MDS Sciex API 4000 mass spectrometer. Positive ions were monitored in the multiple reaction-monitoring (MRM) mode. Quantitation was by peak area ratio.
PK data analysis was carried out using non-compartmental analysis (NCA) in Phoenix WinNonlin 8.1 (Certara USA Inc.). All concentration values below the lower limit of quantitation were treated as zero for the pharmacokinetic analysis. The maximum concentration (Cmax) and the apparent time to Cmax (tmax) were obtained by observation. The area under the concentration versus time curve (AUC) was obtained by the linear trapezoidal method. All concentration data and PK parameters were reported at up to three significant figures if the value was greater than one, and at up to three decimal places if the value was less than one. Time parameters were reported at up to two decimal places. The concentration data were plotted using Excel (Microsoft).

α4β7 integrin = biological target: T2, α4β7 integrin (Homo sapiens, UniProt P13612+P26010); test: MAdCAM1-mediated cytokine production by CD4+ T-cells (MSD/luminex multiplex); assay type: cell-based; conditions: IFNγ, IL-5, IL-6, IL-10, IL-13, GM-CSF, TNFα; three donors
T2 construct: endogenous in cells; host or cells: primary human CD4+ T cells enriched from PBMCs of healthy donors
T2 sequence (P13612 34-1032): as the sequence (P13612 34-1032) above
T2 sequence (P26010 20-798): as the sequence (P26010 20-798) above
Method: PBMCs were purified from three healthy human donors (Donors 7, 10, and 11), and enrichment of CD4+ T cells was performed.

[5] = Anti-CD3 + MAdCAM1 + 1 uM Compound A

## CC(C)C[C@@H]1NC(=O)[C@H](C(C)O)NC(=O)[C@H](CC(=O)O)NC(=O)[C@H](CO)NC(=O)[C@H](CCCNC(=N)N)N(C)C(=O)c2ccccc2CSC(C)(C)[C@@H](C(=O)N[C@@H](Cc2ccc(C(C)(C)C)cc2)C(=O)N[C@@H](CCC(=O)O)CC(=O)N[C@H](CCCCNC(=O)COCC(=O)NCCCC[C@@H](NC(=O)C[C@H](CCC(=O)O)NC(=O)[C@H](Cc2ccc(C(C)(C)C)cc2)NC(=O)[C@H]2NC(=O)[C@H](CC(C)C)NC(=O)[C@H](C(C)O)NC(=O)[C@H](CC(=O)O)NC(=O)[C@H](CO)NC(=O)[C@H](CCCNC(=N)N)N(C)C(=O)c3ccccc3CSC2(C)C)C(=O)O)C(=O)O)NC1=O (stereo partly drawn) [Compound A, ((2-Benzyl)-(N-Me-R)-Ser-Asp-Thr-Leu-Pen-(Phe(4-tBlu))-(β-homo-Glu)-(D-Lys)-OH)2 (SEQ ID NO: 5) and linker-DIG diglycolic acid] (I: [NMeR]SD[Thr(3ξ)]L[Pen][Phe(4-tBu)][β3hE][dK]-OH / II: [NMeR]SD[Thr(3ξ)]L[Pen][Phe(4-tBu)][β3hE][dK]-OH; linker I:9-II:9 via Diglycolyl; linker I:N-I:6, II:N-II:6 via X1)
α4β7 receptor occupancy; read-out: estimated IC50 for receptor occupancy (converted)
  IC50: 0.251 nM
α4β7 receptor occupancy; read-out: estimated IC80 for receptor occupancy
  IC80: 5.9 ng/mL (≈ 2.14 nM)
[1]
  human equivalent dose of the NOEL: approximately 145 mg
Primary CD4+ T-cells; [5]
  Th1-IFNγ, CD4+ T-cells: 15%
  Th2-IL-4, CD4+ T-cells: 0.7%
  Th17-IL-17A, CD4+ T-cells: 0.6%
Primary CD4+ T-cells; tested in 5 donors
  surface expression of β7 in undivided CD4+ T-cells: lowered
[2]
  bioavailability: < 1%
[3]
  bioavailability: < 1%
[4]; female, C57BL/6, mouse, mesenteric lymph nodes, read-out: mean Cmax, MLNs
  Cmax: 56.8 ng/g
[4]; female, C57BL/6, mouse, plasma
  AUC: 95.4 ng·h/mL
[4]; female, C57BL/6, mouse, plasma, read-out: mean Cmax, plasma
  Cmax: 19 ng/mL
[4]; female, C57BL/6, mouse, small intestine, read-out: mean Cmax, small intestine
  Cmax: 13300 ng/g
[4]
  mean AUC, MLNs: 226 ng·h/g
  mean AUC, PPs: 37900 ng·h/g
  mean AUC, colon: 15700 ng·h/g
  mean AUC, small intestine: 48600 ng·h/g
  mean Cmax in PPs and colon relative to small intestine: approximately two-fold lower
  time of peak exposure, MLNs: 1 h
  time of peak exposure, PPs: 1 h
  time of peak exposure, colon: 6 h
  time of peak exposure, plasma: 3 h
  time of peak exposure, small intestine: 1 h
α4β7 integrin
  inhibition of MAdCAM1-mediated cytokine production: Concentration-dependent and full inhibition
